Measured values from paper PMC3462657 (Cancer letters, 2012).
“Also recorded” adds a separate entry of the source. Each block holds one compound with its values, some of them ahead of it.

Assays:
[1] = Tissue curcumin/curcuminoids levels by UPLC-fluorescence; assay type: in vivo, female A/J mice; conditions: for concentration at 21 days: female, A/J
[2] = parameters: species or system mice; conditions: mouse, in vivo
[3] = In vitro release from polymeric implants; assay type: in vitro ADME; conditions: for cumulative release over 3 weeks: 37°C
[4] = tested on: DBP-induced lung DNA adducts; test: Inhibition of DBP-DNA adducts in lung tissue, 32P-postlabeling; assay type: in vivo, female A/J mice; conditions: coated implants, DBP-treated mice, 3 weeks
[5] = tested on: human lung cancer A549 xenograft; test: Effect on tumor xenograft
[6] = implants of the individual curcuminoids, 21 days
[7] = coated implants, PBS + 10% bovine serum

composition of the three curcuminoids in lung tissue ([1]; mouse, in vivo): essentially the same compositions
ratio of the three curcuminoids in the liver ([1]; mouse, in vivo): 74:18:8
biochemical parameters of kidney function [2]: No significant differences
hematological parameters (white blood cells, red blood cells, hemoglobin) [2]: No significant differences
liver enzymes [2]: No significant differences
neutrophils, lymphocytes, monocytes, eosinophils, and basophils [2]: no statistical difference
Compound: curcumin
effect on body weight [2]: no significant effect

Compound: COc1cc(/C=C/C(=O)CC(=O)/C=C/c2ccc(O)c(OC)c2)ccc1O [curcumin I]
level in lung ([1]; implants of the individual curcuminoids, 10% load, 21 days): 6.5 ± 1.6 ng/g lung
level in brain [1, 6]: 1.4 ng/g tissue
level in liver [1, 6]: 5–6 ng/g tissue

cumulative release over 3 weeks [3, 7]: 51.4%
concentration at 21 days ([1]; mouse, in vivo, level in brain): 6.4 ng/g
concentration at 21 days ([1]; mouse, in vivo, level in liver): 5 to 6 ng/g
concentration at 21 days ([1]; mouse, in vivo, level in lung): 49.7 ± 1.3 ng/g
Compound: O=C(/C=C/c1ccc(O)cc1)CC(=O)/C=C/c1ccc(O)cc1 [curcumin III, bisdemethoxycurcumin]

cumulative release over 3 weeks [3, 7]: 41.8%
concentration at 21 days ([1]; mouse, in vivo, level in brain): 1 ng/g
concentration at 21 days ([1]; mouse, in vivo, level in lung): 1.4 ± 0.4 ng/g
Compound: COc1cc(/C=C/C(O)=C/C(=O)/C=C/c2ccc(O)cc2)ccc1O [curcumin II, demethoxycurcumin]

release in PBS alone ([3]; coated implants agitated in PBS alone at 37°C): essentially no release
cumulative release ([3]; coated implants, PBS + 10% bovine serum, after 21 days): about 12%
cumulative release ([3]; coated implants, PBS + 10% bovine serum, after 60 days): ~27%
in vitro release pattern ([3]; coated implants, PBS + 10% bovine serum, over 60 days / eight weeks): almost zero-order kinetics
Compound: Cc1c(-c2cnccn2)ssc1=S [oltipraz, reference compound]
effect on DBP-DNA adduct levels in lung [4]: reduction was statistically significant
lung DNA adducts [4]: 28±7 adducts/10^9 nucleotides

total dose administered via the two implants ([5]; calculated based on the residual amount in the implants): 2.69 mg
Compound: CC1=C(CO)C(=O)O[C@@H]([C@@H](C)[C@H]2CC[C@H]3[C@@H]4C[C@H]5O[C@]56[C@@H](O)C=CC(=O)[C@]6(C)[C@H]4CC[C@]23C)C1 [withaferin A]
effect on DBP-DNA adduct levels in lung [4]: reduction in the DNA adduct levels
effect on DBP-DNA adduct levels in lung ([4]; listed as Withaferin A): diminished DNA adducts, but it was insignificant
effect on A549 xenograft ([5]; given via the implants): significantly inhibited
inhibition of the tumor ([5]; intraperitoneally 8 mg/kg, alternate days): 53%
effect on tumor ([5]; intraperitoneally, lower dose 4 mg/kg (same total dose as implants), 4 mg/kg): ineffective; also recorded: no reduction
body weight at the end of the 8-week study ([5]; via implants vs sham): essentially the same body weight
reduction in the growth of the tumor (tumor volume) ([5]; via implants, two 1.5-cm, 5% load): 51%
